Source: US10399989B2, “Pyrazolopyrimidine derivatives as BTK inhibitors for the treatment of cancer” (Loxo Oncology, Inc., priority 2016, dated 2019)
Where two headings read alike, the source gives them in different places.

Key:
BTK^WT = BTK^WT (Homo sapiens (Human), UniProt Q06187); test: BTK^WT binding affinity (TR-FRET, LanthaScreen)
Protocol: BTK^WT binding affinity of each compound tested was determined using a time-resolved fluorescence resonance energy transfer (TR-FRET) methodology. 2.5 nM Recombinant BTK^WT kinase, varying concentrations of inhibitor, 2 nM LanthaScreen™ Eu anti-His Antibody and 15 nM Kinase Tracer 236 was incubated in 1× LanthaScreen™ Kinase Buffer A for 5 h. Recombinant BTK kinase and all LanthaScreen™ components were purchased from Invitrogen. Measurements were performed in a reaction volume of 30 μL using half-area 96-well assay plates. The TR-FRET signal was read on a plate reader with an excitation wavelength of 340 nm and detection wavelengths of 615 and 665 nm. Binding affinity was determined for each compound by measuring TR-FRET signal at various concentrations of compound and plotting the relative fluorescence units against the inhibitor concentration to estimate the IC50 from log [Inhibitor] vs response using the Variable Slope model in Graphpad prism from Graphpad software (SanDiego, Calif.).

BTK^C481S = BTK^C481S (Homo sapiens (Human), UniProt Q06187, C481S); test: BTK^C481S binding affinity (TR-FRET, LanthaScreen); details: 5 h incubation
Chain of BTK^C481S (Q06187 whole entry C481S): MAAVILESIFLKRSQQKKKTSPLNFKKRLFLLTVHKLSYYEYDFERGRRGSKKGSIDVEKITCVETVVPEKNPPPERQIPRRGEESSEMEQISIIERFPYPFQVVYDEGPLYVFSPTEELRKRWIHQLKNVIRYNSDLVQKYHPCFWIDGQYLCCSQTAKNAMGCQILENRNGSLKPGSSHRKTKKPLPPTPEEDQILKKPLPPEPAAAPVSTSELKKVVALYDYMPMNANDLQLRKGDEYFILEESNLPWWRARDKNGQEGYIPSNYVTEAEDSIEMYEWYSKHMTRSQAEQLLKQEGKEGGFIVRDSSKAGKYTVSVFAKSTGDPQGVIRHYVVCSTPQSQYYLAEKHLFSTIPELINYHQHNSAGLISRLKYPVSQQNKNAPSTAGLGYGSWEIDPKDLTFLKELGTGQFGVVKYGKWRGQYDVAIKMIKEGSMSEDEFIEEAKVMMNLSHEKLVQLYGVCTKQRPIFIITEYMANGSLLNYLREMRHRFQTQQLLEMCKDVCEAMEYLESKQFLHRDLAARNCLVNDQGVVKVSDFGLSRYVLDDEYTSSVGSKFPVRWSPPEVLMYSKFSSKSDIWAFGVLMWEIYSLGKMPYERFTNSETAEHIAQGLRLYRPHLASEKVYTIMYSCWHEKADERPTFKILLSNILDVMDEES
Protocol: BTK^C481S binding affinity of each compound tested was determined using a time-resolved fluorescence resonance energy transfer (TR-FRET) methodology. 5 nM Recombinant […] kinase, varying concentrations of inhibitor, 2 nM LanthaScreen™ Eu anti-His Antibody and 30 nM Kinase Tracer 236 was incubated in 1× LanthaScreen™ Kinase Buffer A for 5 h. Recombinant BTK^C481S kinase was purchased from SignalChem and all LanthaScreen™ components were purchased from Invitrogen. Measurements were performed in a reaction volume of 30 μL using half-area 96-well assay plates. The TR-FRET signal was read on a plate reader with an excitation wavelength of 340 nm and detection wavelengths of 615 and 665 nm. Binding affinity was determined for each compound by measuring TR-FRET signal at various concentrations of compound and plotting the relative fluorescence units against the inhibitor concentration to estimate the IC50 from log [Inhibitor] vs response using the Variable Slope model in Graphpad prism from Graphpad software (SanDiego, Calif.).

EGFR = EGFR (Homo sapiens (Human), UniProt P00533); test: EGFR binding affinity (TR-FRET, LanthaScreen); details: 5 h incubation
Chain of EGFR (P00533 25-1210): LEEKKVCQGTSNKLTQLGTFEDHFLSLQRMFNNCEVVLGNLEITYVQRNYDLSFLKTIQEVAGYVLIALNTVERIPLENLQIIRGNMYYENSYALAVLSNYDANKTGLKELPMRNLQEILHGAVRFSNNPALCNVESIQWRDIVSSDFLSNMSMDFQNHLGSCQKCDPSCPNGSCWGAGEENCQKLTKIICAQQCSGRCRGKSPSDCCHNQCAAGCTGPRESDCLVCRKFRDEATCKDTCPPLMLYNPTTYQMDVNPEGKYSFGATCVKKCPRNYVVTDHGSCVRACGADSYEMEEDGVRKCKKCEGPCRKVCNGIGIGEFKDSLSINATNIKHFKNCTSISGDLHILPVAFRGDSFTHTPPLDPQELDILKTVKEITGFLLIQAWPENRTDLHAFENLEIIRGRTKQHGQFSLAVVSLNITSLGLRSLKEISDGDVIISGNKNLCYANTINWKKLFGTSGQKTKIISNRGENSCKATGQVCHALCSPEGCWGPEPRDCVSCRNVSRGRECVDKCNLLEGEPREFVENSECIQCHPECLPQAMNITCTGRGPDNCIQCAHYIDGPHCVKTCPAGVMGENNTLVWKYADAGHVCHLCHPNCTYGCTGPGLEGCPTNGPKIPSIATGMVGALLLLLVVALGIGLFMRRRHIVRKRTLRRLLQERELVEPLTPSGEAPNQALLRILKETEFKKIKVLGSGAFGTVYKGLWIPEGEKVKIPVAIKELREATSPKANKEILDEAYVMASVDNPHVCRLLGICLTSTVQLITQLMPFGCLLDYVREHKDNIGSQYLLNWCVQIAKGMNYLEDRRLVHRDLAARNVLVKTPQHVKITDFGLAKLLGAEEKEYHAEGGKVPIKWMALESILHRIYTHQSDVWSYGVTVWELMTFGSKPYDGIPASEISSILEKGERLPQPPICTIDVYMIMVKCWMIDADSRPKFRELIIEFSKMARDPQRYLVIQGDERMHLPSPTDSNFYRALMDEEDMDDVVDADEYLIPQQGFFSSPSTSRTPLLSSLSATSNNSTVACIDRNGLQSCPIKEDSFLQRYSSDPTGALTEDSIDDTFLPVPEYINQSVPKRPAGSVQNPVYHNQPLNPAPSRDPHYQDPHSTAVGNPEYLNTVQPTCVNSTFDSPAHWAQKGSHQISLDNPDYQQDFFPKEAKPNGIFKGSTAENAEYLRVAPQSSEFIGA
Protocol: EGFR binding affinity was determined using a time-resolved fluorescence resonance energy transfer (TR-FRET) methodology. 2.5 nM Recombinant EGFR, varying concentrations of inhibitor, 2 nM LanthaScreen™ Eu anti-GST Antibody and 3 nM Kinase Tracer 199 was incubated in 1× LanthaScreen™ Kinase Buffer A for 5 h. Recombinant EGFR and all LanthaScreen™ components were purchased from Invitrogen. Measurements were performed in a reaction volume of 30 μL using half-area 96-well assay plates. The TR-FRET signal was read on a plate reader with an excitation wavelength of 340 nm and detection wavelengths of 615 and 665 nm. Binding affinity was determined for each compound by measuring TR-FRET signal at various concentrations of compound and plotting the relative fluorescence units against the inhibitor concentration to estimate the IC50 from log [Inhibitor] vs response using the Variable Slope model in Graphpad prism from Graphpad software (SanDiego, Calif.).

[1] = test system: OCI-Ly10 human DLBCL cells; test: OCI-Ly10 anti-proliferative activity (Resazurin, 72 h); assay type: cell-based; details: read-out: Proliferation OCI-Ly10-IC50
Protocol: Compounds were assayed for effects on the growth of OCI-Ly10 human DLBCL cells that are dependent on NFκB signalling. OCI-Ly10 cells were grown in suspension in T225 flasks, centrifuged and re-suspended in 2.5% FBS containing media. Cells were then plated at 7.5×10^3 cells per well in 96-well plates in varying concentrations of compound and incubated for 72 h at 37° C. An additional plate of cells to be used as the Day 0 read was seeded without compound addition, Resazurin was added to each well, incubated for 5 h and the fluorescence measured at 590 nm. After 72 h of compound treatment, Resazurin was added to each well of the compound treated plates, incubated for 5 h and the fluorescence measured at 590 nm. The IC50 was then calculated by subtracting the average Day 0 value from each well value from the treated plates, each treatment was then calculated as a percentage of the DMSO control and the percentages plotted against the inhibitor concentration to estimate the IC50 from log [Inhibitor] vs response using the Variable Slope model in Graphpad prism from Graphpad software (SanDiego, Calif.).

[2] = TR-FRET binding, 5 h incubation, read-out: BTK^WT IC50

Chain of BTK^WT (Q06187 whole entry): as the sequence (Q06187 whole entry C481S) above, with S481C counted along it

Row | IC50 (BTK^WT; [2]) | IC50 (BTK^WT; Table 6, numeric values, read-out: BTK Binding IC50) | IC50 (BTK^C481S) | IC50 (EGFR) | IC50 ([1]; Homo sapiens, OCI-Ly10, 72 h) | IC50 [1] | Compound
1 | ≤ 10 nM |  | ≤ 10 nM |  | 10 to 100 nM |  | COc1ccccc1C(=O)NCc1ccc(-c2nn(C3CCCC3)c3ncnc(N)c23)cc1 [Example 1, N-[[4-(4-amino-1-cyclopentyl-pyrazolo[3,4-d]pyrimidin-3-yl)phenyl]methyl]-2-methoxy-benzamide]
2 |  |  |  | > 10000 nM | 100 to 1000 nM |  | COc1cc(C)ccc1C(=O)NCc1ccc(-c2nn(C3CCCC3)c3ncnc(N)c23)cc1 [Example 10, N-[[4-(4-amino-1-cyclopentyl-pyrazolo[3,4-d]pyrimidin-3-yl)phenyl]methyl]-2-methoxy-4-methyl-benzamide]
3 |  |  |  | 1000 to 10000 nM | 100 to 1000 nM |  | COc1c(F)cccc1C(=O)NCc1ccc(-c2nn(C3CCCC3)c3ncnc(N)c23)cc1 [Example 14, N-[[4-(4-amino-1-cyclopentyl-pyrazolo[3,4-d]pyrimidin-3-yl)phenyl]methyl]-3-fluoro-2-methoxy-benzamide]
4 |  |  |  | 1000 to 10000 nM | 10 to 100 nM |  | COc1cc(F)ccc1C(=O)NCc1ccc(-c2nn(C3CCCC3)c3ncnc(N)c23)cc1 [Example 15, N-[[4-(4-amino-1-cyclopentyl-pyrazolo[3,4-d]pyrimidin-3-yl)phenyl]methyl]-4-fluoro-2-methoxy-benzamide]
5 |  |  |  | 1000 to 10000 nM | 1000 to 10000 nM |  | COc1cccc(F)c1C(=O)NCc1ccc(-c2nn(C3CCCC3)c3ncnc(N)c23)cc1 [Example 16, N-[[4-(4-amino-1-cyclopentyl-pyrazolo[3,4-d]pyrimidin-3-yl)phenyl]methyl]-2-fluoro-6-methoxy-benzamide]
6 | 10 to 100 nM |  | 10 to 100 nM |  | 100 to 1000 nM |  | COc1ncccc1C(=O)NCc1ccc(-c2nn(C3CCCC3)c3ncnc(N)c23)cc1 [Example 18, N-[[4-(4-amino-1-cyclopentyl-pyrazolo[3,4-d]pyrimidin-3-yl)phenyl]methyl]-2-methoxy-pyridine-3-carboxamide]

More lines, now with the values behind:

Row | Compound | IC50 (BTK^WT; [2]) | IC50 (BTK^WT; Table 6, numeric values, read-out: BTK Binding IC50) | IC50 (BTK^C481S) | IC50 (EGFR) | IC50 ([1]; Homo sapiens, OCI-Ly10, 72 h) | IC50 [1]
7 | COc1ccccc1C(=O)NCc1ccc(-c2nn([C@@H]3CC[C@H](O)C3)c3ncnc(N)c23)cc1 (relative stereo) [Example 24, N-[[4-[4-amino-1-[(1R*,3S*)-3-hydroxycyclopentyl]pyrazolo[3,4-d]pyrimidin-3-yl]phenyl]methyl]-2-methoxy-benzamide] | ≤ 10 nM | 2.2 nM | ≤ 10 nM | 100 to 1000 nM | 10 to 100 nM | 
8 | COc1ccccc1C(=O)NCc1ccc(-c2nn(C3CCC(O)CC3)c3ncnc(N)c23)cc1 (single isomer, unassigned) [Example 23-isomer1, N-[[4-[4-amino-1-(4-hydroxycyclohexyl)pyrazolo[3,4-d]pyrimidin-3-yl]phenyl]methyl]-2-methoxy-benzamide] | ≤ 10 nM |  | ≤ 10 nM | 100 to 1000 nM |  | 100 to 1000 nM
9 | COc1ccc(C(F)(F)F)cc1C(=O)NCc1ccc(-c2nn(C3CCCC3)c3ncnc(N)c23)cc1 [Example 13, N-[[4-(4-amino-1-cyclopentyl-pyrazolo[3,4-d]pyrimidin-3-yl)phenyl]methyl]-2-methoxy-5-(trifluoromethyl)benzamide] | 100 to 1000 nM |  |  | > 10000 nM | 100 to 1000 nM | 
10 | COc1ccccc1C(=O)NC(C)c1ccc(-c2nn(C3CCCC3)c3ncnc(N)c23)cc1 (stereo not drawn) [Example 64, N-[1-[4-(4-amino-1-cyclopentyl-pyrazolo[3,4-d]pyrimidin-3-yl)phenyl]ethyl]-2-methoxy-benzamide] |  |  |  | 1000 to 10000 nM | 1000 to 10000 nM | 
11 | COc1cc(-c2nn(C3CCCC3)c3ncnc(N)c23)ccc1CNC(=O)c1ccccc1OC [Example 75, N-[[4-(4-Amino-1-cyclopentyl-pyrazolo[3,4-d]pyrimidin-3-yl)-2-methoxy-phenyl]methyl]-2-methoxy-benzamide] | ≤ 10 nM |  | ≤ 10 nM |  | 10 to 100 nM | 
12 | CC(C)c1ccccc1C(=O)NCc1ccc(-c2nn(C3CCCC3)c3ncnc(N)c23)cc1 [Example 80, N-[[4-(4-amino-1-cyclopentyl-pyrazolo[3,4-d]pyrimidin-3-yl)phenyl]methyl]-2-isopropyl-benzamide] |  |  |  | 1000 to 10000 nM | 1000 to 10000 nM | 
